Values of other authors as cited in US7700588B2, “Pharmaceutical compositions comprising midazolam in a high concentration” (priority 2004, dated 2010).
Read-outs that look alike come from different tables or passages of the source.

Experiments:
[1] = for mean absolute bioavailability: injection solutions
[2] = free base, pH 7.5
[3] = not given; remark: listed apart in the source
[4] = nasal 0.2 mg/kg
[5] = test system: intestinal drug efflux transporter; settings: orally delivered
[6] = after nasal administration, 0.2 to 0.25 mg/kg
[7] = commercial intravenous solutions 5 mg/ml, pH 3.3 to 3.5

Cc1ncc2n1-c1ccc(Cl)cc1C(c1ccccc1F)=NC2 [midazolam]
time for which therapeutically effective plasma concentrations are maintained [1, 6]: about 1 hour | time until therapeutically effective plasma concentrations are manifest [1, 6]: 3 min | time to maximum plasma concentrations ([1]; intranasal): 5 to 15 min | mean absolute bioavailability ([1]; intranasal, adult surgical patients): 83% | mean absolute bioavailability ([1]; intranasal, children): 50% | mean absolute bioavailability ([1]; intranasal, healthy volunteers): 55% | partition coefficient between octanol and phosphate buffer [2]: about 475 | share in the ring-closed form [7]: 80-85% | share in the ring-open form [7]: 15-20% | state of the ring when pH is increased (pH increased to 7.4): completely closed | onset of action ([3]; intranasal, children and adults): about 10 minutes | clinical effect in children undergoing diagnostic and minor surgical procedures ([3]; nasal 0.2 mg/kg): sedative and anxiolytic effects | effect on seizures and EEG in epileptic children ([3]; nasal 0.2 mg/kg): suppresses acute seizures and improves the EEG background | side effects in children [4]: none of the children had clinical signs of respiratory depression, bradycardia or other side effects | transporter substrate [5]: substrate for the intestinal drug efflux transporter
